Source: patent US20220281848A1, “PYRAZOLE-SUBSTITUTED PYRROLIDINONES AS HERBICIDES” (FMC Corporation, priority 2019, published 2022)

Key:
Format in all cases: in vivo
Settings in all cases: after 13 d
[1] = test system: ivy-leaved morning glory (Ipomoea hederacea, IPOHE); assay: Test A post-emergence, ivy-leaved morning glory
Procedure, shortened: (§1)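 Visual damage rating (0 no damage to 100 total damage) was made 13 d after spraying. The spray was 15.625, 62.5 or 250 g/ha in 50:50 acetone/water with 0.5% Tween 20, applied to 8-day-old glasshouse plants kept at 24/16° C, 14 h light and 65% humidity.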

[2] = test system: barnyardgrass (Echinochloa crus-galli, ECHCG); assay: Test A post-emergence, barnyardgrass
Procedure, shortened: as §1

corn (Zea mays, ZEAMX) [3] = assay: Test A pre-emergence, corn
Procedure, shortened: (§2)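 Values are percent plant damage 13 d after a pre-emergence spray (15.625, 62.5 or 250 g/ha; acetone/water with 0.5% Tween 20) applied to pots one day post-sowing, under glasshouse conditions of 24/16° C. and twice-daily watering.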

[4] = test system: redroot pigweed (Amaranthus retroflexus, AMARE); assay: Test A pre-emergence, redroot pigweed
Procedure, shortened: as §2

[5] = test system: redroot pigweed (Amaranthus retroflexus, AMARE); assay: Test A post-emergence, redroot pigweed
Procedure, shortened: as §1

[6] = test system: velvetleaf (Abutilon theophrasti, ABUTH); assay: Test A pre-emergence, velvetleaf
Procedure, shortened: as §2

[7] = test system: barnyardgrass (Echinochloa crus-galli, ECHCG); assay: Test A pre-emergence, barnyardgrass
Procedure, shortened: as §2

corn (Zea mays, ZEAMX) [8] = assay: Test A post-emergence, corn
Procedure, shortened: as §1

[9] = test system: giant foxtail (Setaria faberi, SETFA); assay: Test A post-emergence, giant foxtail
Procedure, shortened: as §1

[10] = test system: giant foxtail (Setaria faberi, SETFA); assay: Test A pre-emergence, giant foxtail
Procedure, shortened: as §2

[11] = test system: velvetleaf (Abutilon theophrasti, ABUTH); assay: Test A post-emergence, velvetleaf
Procedure, shortened: as §1

[12] = test system: ivy-leaved morning glory (Ipomoea hederacea, IPOHE); assay: Test A pre-emergence, ivy-leaved morning glory
Procedure, shortened: as §2

With `CN1CC(c2nn(C)c(Cl)c2Br)C(C(=O)Nc2ccc(F)c(F)c2F)C1=O` (racemic) [Compound 32] the “damage to plant (100=total damage; 0=no damage) IPOHE” value ([1]; Post-Emergence at 15.625 g/ha) was 0, the “damage to plant (100=total damage; 0=no damage) IPOHE” value ([1]; Post-Emergence at 62.5 g/ha) was 0 and the “damage to plant (100=total damage; 0=no damage) IPOHE” value ([1]; Post-Emergence at 250 g/ha) was 10. The “damage to plant (100=total damage; 0=no damage) ECHCG” value ([2]; Post-Emergence at 15.625 g/ha) was 10, the “damage to plant (100=total damage; 0=no damage) ECHCG” value ([2]; Post-Emergence at 62.5 g/ha) was 40 and the “damage to plant (100=total damage; 0=no damage) ECHCG” value ([2]; Post-Emergence at 250 g/ha) was 80. For the same compound, the “damage to plant (100=total damage; 0=no damage) ZEAMX” value (corn (Zea mays, ZEAMX) [3]; Pre-Emergence at 15.625 g/ha) was 0, the “damage to plant (100=total damage; 0=no damage) ZEAMX” value (corn (Zea mays, ZEAMX) [3]; Pre-Emergence at 62.5 g/ha) was 10 and the “damage to plant (100=total damage; 0=no damage) ZEAMX” value (corn (Zea mays, ZEAMX) [3]; Pre-Emergence at 250 g/ha) was 10. For the same compound, the “damage to plant (100=total damage; 0=no damage) AMARE” value ([4]; Pre-Emergence at 15.625 g/ha) was 0, the “damage to plant (100=total damage; 0=no damage) AMARE” value ([4]; Pre-Emergence at 62.5 g/ha) was 0 and the “damage to plant (100=total damage; 0=no damage) AMARE” value ([4]; Pre-Emergence at 250 g/ha) was 0. For the same compound, the “damage to plant (100=total damage; 0=no damage) AMARE” value ([5]; Post-Emergence at 15.625 g/ha) was 0, the “damage to plant (100=total damage; 0=no damage) AMARE” value ([5]; Post-Emergence at 62.5 g/ha) was 0 and the “damage to plant (100=total damage; 0=no damage) AMARE” value ([5]; Post-Emergence at 250 g/ha) was 0. The “damage to plant (100=total damage; 0=no damage) ABUTH” value ([6]; Pre-Emergence at 15.625 g/ha) was 0, the “damage to plant (100=total damage; 0=no damage) ABUTH” value ([6]; Pre-Emergence at 62.5 g/ha) was 0 and the “damage to plant (100=total damage; 0=no damage) ABUTH” value ([6]; Pre-Emergence at 250 g/ha) was 0. For the same compound, the “damage to plant (100=total damage; 0=no damage) ECHCG” value ([7]; Pre-Emergence at 15.625 g/ha) was 30, the “damage to plant (100=total damage; 0=no damage) ECHCG” value ([7]; Pre-Emergence at 62.5 g/ha) was 50 and the “damage to plant (100=total damage; 0=no damage) ECHCG” value ([7]; Pre-Emergence at 250 g/ha) was 70. For the same compound, the “damage to plant (100=total damage; 0=no damage) ZEAMX” value (corn (Zea mays, ZEAMX) [8]; Post-Emergence at 15.625 g/ha) was 0, the “damage to plant (100=total damage; 0=no damage) ZEAMX” value (corn (Zea mays, ZEAMX) [8]; Post-Emergence at 62.5 g/ha) was 0 and the “damage to plant (100=total damage; 0=no damage) ZEAMX” value (corn (Zea mays, ZEAMX) [8]; Post-Emergence at 250 g/ha) was 10. The “damage to plant (100=total damage; 0=no damage) SETFA” value ([9]; Post-Emergence at 15.625 g/ha) was 20, the “damage to plant (100=total damage; 0=no damage) SETFA” value ([9]; Post-Emergence at 62.5 g/ha) was 60 and the “damage to plant (100=total damage; 0=no damage) SETFA” value ([9]; Post-Emergence at 250 g/ha) was 80. The “damage to plant (100=total damage; 0=no damage) SETFA” value ([10]; Pre-Emergence at 15.625 g/ha) was 20, the “damage to plant (100=total damage; 0=no damage) SETFA” value ([10]; Pre-Emergence at 62.5 g/ha) was 60 and the “damage to plant (100=total damage; 0=no damage) SETFA” value ([10]; Pre-Emergence at 250 g/ha) was 90. The “damage to plant (100=total damage; 0=no damage) ABUTH” value ([11]; Post-Emergence at 15.625 g/ha) was 0, the “damage to plant (100=total damage; 0=no damage) ABUTH” value ([11]; Post-Emergence at 62.5 g/ha) was 0 and the “damage to plant (100=total damage; 0=no damage) ABUTH” value ([11]; Post-Emergence at 250 g/ha) was 0. The “damage to plant (100=total damage; 0=no damage) IPOHE” value ([12]; Pre-Emergence at 15.625 g/ha) was 0, the “damage to plant (100=total damage; 0=no damage) IPOHE” value ([12]; Pre-Emergence at 62.5 g/ha) was 0 and the “damage to plant (100=total damage; 0=no damage) IPOHE” value ([12]; Pre-Emergence at 250 g/ha) was 10.

With `CN1C[C@H](c2nn(C)c3c(Cl)cccc23)[C@@H](C(=O)Nc2cccc(F)c2F)C1=O` [Compound 5] the “damage to plant (100=total damage; 0=no damage) IPOHE” value ([1]; Post-Emergence at 15.625 g/ha) was 0, the “damage to plant (100=total damage; 0=no damage) IPOHE” value ([1]; Post-Emergence at 62.5 g/ha) was 0 and the “damage to plant (100=total damage; 0=no damage) IPOHE” value ([1]; Post-Emergence at 250 g/ha) was 0. For the same compound, the “damage to plant (100=total damage; 0=no damage) ECHCG” value ([2]; Post-Emergence at 15.625 g/ha) was 0, the “damage to plant (100=total damage; 0=no damage) ECHCG” value ([2]; Post-Emergence at 62.5 g/ha) was 60 and the “damage to plant (100=total damage; 0=no damage) ECHCG” value ([2]; Post-Emergence at 250 g/ha) was 80. For the same compound, the “damage to plant (100=total damage; 0=no damage) ZEAMX” value (corn (Zea mays, ZEAMX) [3]; Pre-Emergence at 15.625 g/ha) was 0, the “damage to plant (100=total damage; 0=no damage) ZEAMX” value (corn (Zea mays, ZEAMX) [3]; Pre-Emergence at 62.5 g/ha) was 0 and the “damage to plant (100=total damage; 0=no damage) ZEAMX” value (corn (Zea mays, ZEAMX) [3]; Pre-Emergence at 250 g/ha) was 0. For the same compound, the “damage to plant (100=total damage; 0=no damage) AMARE” value ([4]; Pre-Emergence at 15.625 g/ha) was 0, the “damage to plant (100=total damage; 0=no damage) AMARE” value ([4]; Pre-Emergence at 62.5 g/ha) was 0 and the “damage to plant (100=total damage; 0=no damage) AMARE” value ([4]; Pre-Emergence at 250 g/ha) was 30. The “damage to plant (100=total damage; 0=no damage) AMARE” value ([5]; Post-Emergence at 15.625 g/ha) was 0, the “damage to plant (100=total damage; 0=no damage) AMARE” value ([5]; Post-Emergence at 62.5 g/ha) was 0 and the “damage to plant (100=total damage; 0=no damage) AMARE” value ([5]; Post-Emergence at 250 g/ha) was 0. The “damage to plant (100=total damage; 0=no damage) ABUTH” value ([6]; Pre-Emergence at 15.625 g/ha) was 0, the “damage to plant (100=total damage; 0=no damage) ABUTH” value ([6]; Pre-Emergence at 62.5 g/ha) was 0 and the “damage to plant (100=total damage; 0=no damage) ABUTH” value ([6]; Pre-Emergence at 250 g/ha) was 10. For the same compound, the “damage to plant (100=total damage; 0=no damage) ECHCG” value ([7]; Pre-Emergence at 15.625 g/ha) was 0, the “damage to plant (100=total damage; 0=no damage) ECHCG” value ([7]; Pre-Emergence at 62.5 g/ha) was 20 and the “damage to plant (100=total damage; 0=no damage) ECHCG” value ([7]; Pre-Emergence at 250 g/ha) was 80. The “damage to plant (100=total damage; 0=no damage) ZEAMX” value (corn (Zea mays, ZEAMX) [8]; Post-Emergence at 15.625 g/ha) was 0, the “damage to plant (100=total damage; 0=no damage) ZEAMX” value (corn (Zea mays, ZEAMX) [8]; Post-Emergence at 62.5 g/ha) was 0 and the “damage to plant (100=total damage; 0=no damage) ZEAMX” value (corn (Zea mays, ZEAMX) [8]; Post-Emergence at 250 g/ha) was 0. For the same compound, the “damage to plant (100=total damage; 0=no damage) SETFA” value ([9]; Post-Emergence at 15.625 g/ha) was 10, the “damage to plant (100=total damage; 0=no damage) SETFA” value ([9]; Post-Emergence at 62.5 g/ha) was 50 and the “damage to plant (100=total damage; 0=no damage) SETFA” value ([9]; Post-Emergence at 250 g/ha) was 80. For the same compound, the “damage to plant (100=total damage; 0=no damage) SETFA” value ([10]; Pre-Emergence at 15.625 g/ha) was 0, the “damage to plant (100=total damage; 0=no damage) SETFA” value ([10]; Pre-Emergence at 62.5 g/ha) was 30 and the “damage to plant (100=total damage; 0=no damage) SETFA” value ([10]; Pre-Emergence at 250 g/ha) was 80. For the same compound, the “damage to plant (100=total damage; 0=no damage) ABUTH” value ([11]; Post-Emergence at 15.625 g/ha) was 0, the “damage to plant (100=total damage; 0=no damage) ABUTH” value ([11]; Post-Emergence at 62.5 g/ha) was 0 and the “damage to plant (100=total damage; 0=no damage) ABUTH” value ([11]; Post-Emergence at 250 g/ha) was 0. For the same compound, the “damage to plant (100=total damage; 0=no damage) IPOHE” value ([12]; Pre-Emergence at 15.625 g/ha) was 0, the “damage to plant (100=total damage; 0=no damage) IPOHE” value ([12]; Pre-Emergence at 62.5 g/ha) was 0 and the “damage to plant (100=total damage; 0=no damage) IPOHE” value ([12]; Pre-Emergence at 250 g/ha) was 0.
